Measurements taken from patent US8911953B2, “TDF-related compounds and analogs thereof, analogs and bioactive fragments” (Thrasos Innovation, Inc., priority 2005, dated 2014).
Positions of bridges follow the written chain, without caps; N, C: chain ends. No end group written: not given here.

Assays:
[1] = tested on: HK-2 (Human Kidney-2) cells; experiment: HK-2 cell culture, TNF-alpha induced cytokine and adhesion molecule production (ELISA); format: cell-based; conditions: proximal tubule cells
Procedure: Injury of PTEC by TNF-α and cisplatin (an anti-neoplastic agent) results in the induction of apoptosis, as shown by DNA damage, mitochondial disfunction, BAX […] and caspase activation. BMP-7 protects PTEC/kidney function by inhibiting TNF-α and cisplatin-induced apoptosis in these cells. The immortalized PTEC-derived HK-2 (Human Kidney-2) cells (ATCC number CRL-2190) were grown in serum-free keratinocyte medium (GIBCO number 17005-042) supplemented with epidermal growth factor (EGF: 5 ng/mL) and bovine pituitary extract (40 ug/mL) for 48 hours as described previously (Ryan et al. (1994) Kidney International 45:48-57). Cells were transferred to 24-well plates at a density of 3×10^5 cells per well. After 24 hours, cells were incubated with fresh medium containing TNF-alpha (5 ng/mL) for 20 hours. Controls received medium alone. Then cells were washed twice with fresh culture medium and further incubated with culture medium alone (medium control, and TNF control wells) or TDF-1 at three different concentrations (40, 200 or 1000 ng/mL) or TDFRP compounds at three different concentrations (4, 20 or 100 uM) for sixty hours. During incubation, cells were kept in a 5% CO2 humid atmosphere at 37° C. […] The concentrations of IL-6, IL-8 and sICAM-1 in culture supernatants were measured by specific ELISA (FIG. 14). […]

STZ CD1 mice = experiment: Streptozotocin (STZ)-induced diabetic nephropathy model; format: in vivo, mouse; conditions: ip 5 mg/kg/24 hr, month 5 through 6
Procedure: Reversal of interstitial fibrosis by TDFRP compounds in a CD1 mouse model of streptozotocin (STZ)-induced diabetic nephropathy. A. Schematic of the STZ experimental protocol. Mice were injected with streptozotocin at Day 0 (D0) to induce diabetes and renal injury and sacrificed at 6 months (6M). Vehicle or BMP-7 (positive control) was administered from D0 through 6 months (6M). TDFRP (SEQ ID NO:45) was administered either orally or intraperitoneally from month 5 (5M) through 6M for 30 total days.; B: Kidney section of vehicle-treated STZ animal showing significant interstitial fibrosis; C: Kidney section of STZ animal that received ip administration of TDFRP compound (SEQ ID NO:45) (5 mg/kg/24 hr).
STZ-induced Type 1 diabetes is a widely used experimental model for diabetic nephropathy. Mice given iv STZ develop a progressive loss of pancreatic beta cells culminating in diabetes and renal damage within a six month period of time. In a typical experiment, TDFRP compounds can alleviate fibrosis, reduce proteinuria and protect the kidneys from STZ damage.
The effect of TDFRP compounds on cell damage due to diabetic nephropathy is measured by the method of Wang and coworkers (Wang et al., (2003) 63(6): 2037) (FIG. 8A). Diabetes is induced in 200 g rats by a single dose of streptozotocin.

CYFDDSSNVLCKKYRS (disulfide 1-11 (inferred); not fully specified) [SEQ ID NO:45]
TNF-alpha induced inflammatory response (increase in IL-6) [1]: alleviate
renal interstitial fibrosis (STZ CD1 mice): effectively reversed
